According to patent publication US9365566B2 (Takeda Pharmaceutical Company Limited, priority 2012, dated 2016):

Target: T1, human BTK (Homo sapiens, UniProt Q06187)
T1 construct: GST (Glutathione-S-Transferase) (cleaved yes); made in house; host or cells: Spodoptera frugiperda Sf9 cells (baculovirus, Bac-to-Bac)
Experiment: BTK inhibition assay: BTK-mediated phosphorylation of FAM-labeled substrate 5-FAM-EEPLYWSFPAKKK-NH2 (Caliper LC-3000)
Format: biochemical
Conditions: pIC50 = -log(IC50), IC50 molar; residues 382 to 659 of human BTK; incubated at room temperature for 60 minutes; larger values represent higher potency

T1 sequence (Q06187 382-659): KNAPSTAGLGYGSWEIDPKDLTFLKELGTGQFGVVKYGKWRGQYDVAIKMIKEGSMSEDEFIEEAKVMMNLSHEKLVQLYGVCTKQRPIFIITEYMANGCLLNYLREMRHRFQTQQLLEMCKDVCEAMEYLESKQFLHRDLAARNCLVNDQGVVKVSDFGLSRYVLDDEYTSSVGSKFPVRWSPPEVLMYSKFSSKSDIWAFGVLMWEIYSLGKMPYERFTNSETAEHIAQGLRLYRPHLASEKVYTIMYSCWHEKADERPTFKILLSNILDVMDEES

Row | IC50 | Structure (SMILES)
1 | 79.4 nM | CC(C)(C)c1ccc(-c2nc3ccc(-c4cccc5c(N)c(C(N)=O)nnc45)cc3[nH]2)cc1 [Example 117, 4-amino-8-(2-(4-tert-butylphenyl)-1H-benzo[d]imidazol-6-yl)cinnoline-3-carboxamide]
2 | 100 nM | NC(=O)c1nnc2c(-c3ccc4nc(-c5ccc(F)cc5F)[nH]c4c3)cccc2c1N [Example 118, 4-amino-8-(2-(2,4-difluorophenyl)-1H-benzo[d]imidazol-6-yl)cinnoline-3-carboxamide]
3 | 25.1 nM | Cc1ccc2c(N)c(C(N)=O)nnc2c1-c1ccc2nc(-c3ccc(F)cc3)[nH]c2c1 [Example 120, 4-amino-8-(2-(4-fluorophenyl)-1H-benzo[d]imidazol-6-yl)-7-methylcinnoline-3-carboxamide]
4 | 126 nM | NC(=O)c1nnc2c(-c3ccc4c(c3)CN(c3ccccc3)C4=O)cccc2c1N [Example 121, 4-amino-8-(1-oxo-2-phenylisoindolin-5-yl)cinnoline-3-carboxamide]
5 | 20 nM | NC(=O)c1nnc2c(-c3ccc4c(c3)CNC4=O)cccc2c1N [Example 122]
6 | 200 nM | CN1Cc2cc(-c3cccc4c(N)c(C(N)=O)nnc34)ccc2C1=O [Example 123, 4-amino-8-(2-methyl-1-oxoisoindolin-5-yl)cinnoline-3-carboxamide]
7 | 6.31 nM | Cc1ccc2c(N)c(C(N)=O)nnc2c1-c1ccc2c(c1)CNC2=O [Example 124, 4-amino-7-methyl-8-(1-oxoisoindolin-5-yl)cinnoline-3-carboxamide]
8 | 39.8 nM | NC(=O)c1nnc2c(-c3ccc4c(c3)CNC4=O)ccc(F)c2c1N [Example 125, 4-amino-5-fluoro-8-(1-oxoisoindolin-5-yl)cinnoline-3-carboxamide]
9 | 25.1 nM | CC(C)(O)CCN1Cc2cc(-c3cccc4c(N)c(C(N)=O)nnc34)ccc2C1=O [Example 127, 4-amino-8-(2-(3-hydroxy-3-methylbutyl)-1-oxoisoindolin-5-yl)cinnoline-3-carboxamide]
10 | 200 nM | N#Cc1nc2ccc(-c3cccc4c(N)c(C(N)=O)nnc34)cc2[nH]1 [Example 130, 4-amino-8-(2-cyano-1H-benzo[d]imidazol-6-yl)cinnoline-3-carboxamide]
11 | 126 nM | N#Cc1ccc2c(N)c(C(N)=O)nnc2c1-c1ccc2cn[nH]c2c1 [Example 135, 4-amino-7-cyano-8-(1H-indazol-6-yl)cinnoline-3-carboxamide]
12 | 10 nM | Cc1cc2cn[nH]c2cc1-c1cc(F)cc2c(N)c(C(N)=O)nnc12 [Example 136, 4-amino-6-fluoro-8-(5-methyl-1H-indazol-6-yl)cinnoline-3-carboxamide]

Continued, compound first:

Row | Structure (SMILES) | IC50
13 | Cc1cc(F)c2c(N)c(C(N)=O)nnc2c1-c1ccc2c(c1)CNC2=O [Example 126, 4-amino-5-fluoro-7-methyl-8-(1-oxoisoindolin-5-yl)cinnoline-3-carboxamide] | 12.6 nM
14 | Cc1ccc2c(N)c(C(N)=O)nnc2c1-c1ccc2c(c1)CN(CCC(C)(C)O)C2=O [Example 128, 4-amino-8-(2-(3-hydroxy-3-methylbutyl)-1-oxoisoindolin-5-yl)-7-methylcinnoline-3-carboxamide] | 7.94 nM
15 | CCc1ccc2c(N)c(C(N)=O)nnc2c1-c1ccc2c(c1)CNC2=O [Example 129, 4-amino-7-ethyl-8-(1-oxoisoindolin-5-yl)cinnoline-3-carboxamide] | 5.01 nM
16 | CCn1cnc2ccc(-c3c(C)ccc4c(N)c(C(N)=O)nnc34)cc21 [Example 131, 4-amino-8-(1-ethyl-1H-benzo[d]imidazol-6-yl)-7-methylcinnoline-3-carboxamide] | 100 nM
17 | CCn1cnc2cc(-c3c(C)ccc4c(N)c(C(N)=O)nnc34)ccc21 [Example 132, 4-amino-8-(1-ethyl-1H-benzo[d]imidazol-5-yl)-7-methylcinnoline-3-carboxamide] | 1260 nM
18 | Cc1ccc2c(N)c(C(N)=O)nnc2c1-c1ccc2ncn(CCC#N)c2c1 [Example 133, 4-amino-8-(1-(2-cyanoethyl)-1H-benzo[d]imidazol-6-yl)-7-methylcinnoline-3-carboxamide] | 501 nM
19 | Cc1ccc2c(N)c(C(N)=O)nnc2c1-c1ccc2ncn(CCO)c2c1 [Example 134, 4-amino-8-(1-(2-hydroxyethyl)-1H-benzo[d]imidazol-6-yl)-7-methylcinnoline-3-carboxamide] | 794 nM
20 | Cc1cc2cn[nH]c2cc1-c1cc(N2CCOCC2)cc2c(N)c(C(N)=O)nnc12 [Example 137, 4-amino-8-(5-methyl-1H-indazol-6-yl)-6-morpholinocinnoline-3-carboxamide] | 7.94 nM
21 | Cc1cc2cn[nH]c2cc1-c1cc(N2CCC(O)CC2)cc2c(N)c(C(N)=O)nnc12 [Example 138, 4-amino-6-(4-hydroxypiperidin-1-yl)-8-(5-methyl-1H-indazol-6-yl)cinnoline-3-carboxamide] | 12.6 nM
